Source: US20200131473A1, “METHOD OF GENERATING 2 CELL-LIKE STEM CELLS” (IFOM FONDAZIONE ISTITUTO FIRC DI ONCOLOGIA MOLECOLARE, priority 2017, published 2020)
Entries after “also recorded” stand apart in the source; their conditions may differ.

Tests used:
[1] = tested on: 2C-like genes (Zscan4, MuERV-L/MERVL, Dux) in ESCs (E14, R1); assay: qPCR for 2C-like specific genes in ESCs; format: cell-based, mouse; settings: ESC lines E14 and R1; time and dosage-dependent
Description: (§1) All treatments including APH, HU, UV, ATRi, ATMi and Chk1i were added in to fresh ESC medium and the cells were kept in 37° C. and 3% 02 tension for overnight (16-17 hrs) unless mentioned in each particular result section. APH was used at various concentrations ranging from 0.3 uM to 6 uM that is mentioned in each experiment in order to induce mild to acute replication stress response. Similarly, HU was used at 0.1 mM-3 mM. ATMi (KU-55933) and ATRi (VE 822) were used at the concentration of 10 uM and 1 uM respectively. Moreover, Chk1i (UCN-01) at the concentration of 100 nM was used. UV radiation was performed at the dosage ranging from 2 to 10 J/m2. For induction of ETAA1-AAD expression, Dox was used at the concentration of 1 μg/mL for 48 hrs.
RNA was extracted using RNeasy mini kit (QIAGEN), quantified by NanoDrop spectrophotometer and cDNA was prepared from 2 μg total DNA-depleted RNA using SuperScript™ III reverse transcriptase kit (Invitrogen cat #18080-093) following manufacturer's instructions. qPCR assay performed based on standard protocol using 10× SsoFast™ EvaGreen® Supermix or later 1× LightCycler 480 SYBR Green I Master (Roche, 04707516001), 0.5 μM primer mix and 5 ng of cDNA. GAPDH was used as internal control to normalise the qPCR data following ΔΔCt method, 10 μM primer mix and a total amount of cDNA corresponding to 5 ng of starting RNA for each reaction.

pZscan4-Emerald ESCs = assay: FACS analysis of Zscan4-Emerald ESCs (Emerald-GFP positive cells); format: cell-based, mouse
Description: as §1
ESCs were fixed and permeabilized using Cytoperm/Cytofix kit (BD Biosciences), and subsequently stained for one hour at room temperature with Alexa Fluor® 647 anti-H2AX-Phosphorylated (Ser139) antibody (Biolegend) or P-CHK1-PE conjugated antibody (cell signaling 12268). Cells were washed and acquired on a FACS Calibur instrument or Attune NxT (Thermo Fisher Scientific). For Emerald-GFP acquisition, cells were trypsinized, collected and subsequently acquired without fixation. Cell cycle profiles were acquired after incubation with DAPI (4′,6-diamidino-2-phenylindole) overnight. For Caspase3 FACS analysis after fixation and permeabilization, Cleaved Caspase3 antibody were used for one hr at RT followed by washes and one hr incubation in donkey anti rabbit secondary antibody. […]

mESC lines E14 and R1 = assay: Whole gene expression profiling (microarray) of mESC lines E14 and R1; format: cell-based, mouse; settings: APH plus inhibitor
Description: The quality of total RNA was first assessed using an Agilent Bioanalyzer 2100 (Agilent Technologies, Palo Alto, Calif.). Biotin-labeled cDNA targets were synthesized starting from 150 ng of total RNA. Double stranded cDNA synthesis and related cRNA was performed with GeneChip® WT Plus Kit (Affymetrix, Santa Clara, Calif.). With the same kit was synthesized the sense strand cDNA before to be fragmented and labeled. […] Each eukaryotic GeneChip® probe array contains probe sets for several B. subtilis genes that are absent in the samples analyzed (lys, phe, thr, and dap). This Poly-A RNA Control Kit contains in vitro synthesized, polyadenylated transcripts for these B. subtilis genes that are pre-mixed at staggered concentrations to allow GeneChip® probe array users to assess the overall success of the assay.
Hybridization was performed using the GeneAtlas™ Hybridization, Wash and Stain Kit. […] Targets were diluted in hybridization buffer at a concentration of 0.05 μg/ul, denatured at 99° C. for 5 minutes, incubated at 45° C. for 5 minutes and centrifuged at 5,000 rpm for 1 minute. The Array Strip is then moved to a hybridization tray, which contains the hybridization cocktails. A single Gene 2.1 PEG Array Strip is hybridized with four different biotin-labeled targets. Hybridizations were performed for 20 hours at 48° C. in the GeneAtlas™ Hybridization Station. The Array Strips were washed and stained in the GeneAtlas™ Personal Fluidics Station. At the end of this procedure the array strips were placed into the imaging tray, which contains the Array Holding buffer.
The array strips were imaged using the GeneAtlas™ Imaging Station. Affymetrix GeneAtlas™ Command Console software was used to acquire the Array Strip images and […].
The CAMERA gene set enrichment p-values were calculated using the limma package and the camera function 30.
In the GSVA based enrichment analysis, we used the MsigDB gene sets, and transformed the individual gene expression values into gene set expression values with the GSVA package 32. We calculated the gene set differential expression as in the gene level differential expression analysis, only skipping the RMA normalization step.

Zscan4 = settings: previous work; cited from earlier work

In the case of NC(=O)NO [HU, hydroxyurea], the “expression of Zscan4 and MuERV-L (QPCR and FACS)” value [1] is reported as “significantly upregulated” and the “number of Emerald-GFP positive (Em+) ESCs” value (pZscan4-Emerald ESCs; RS inducing agents, dose-dependent, qPCR and FACS) is reported as “significant increase”.

In the case of Cn1c(=O)c2c(ncn2C)n(C)c1=O [Caffeine], the “two placenta-related gene categories upon ATR inhibition” value (mESC lines E14 and R1) is reported as “robustly suppressed”.

For O=c1cc(-c2cccc3c2Sc2ccccc2S3)oc(N2CCOCC2)c1 [KU-55933], the “elevated expression of 2C-like specific genes (Zscan4, MERVL) upon APH and HU treatment” value (pZscan4-Emerald ESCs; inhibitor added under replication stress, flow cytometry and immunoblot, listed as ATM inhibitor) was “could not alter” and the “number of Zscan4-Emerald positive cells” value (pZscan4-Emerald ESCs; normal culture condition, ATRi 1 uM, ATMi 10 uM) was “did not change; also recorded: did not significantly reduce”.

In the case of COC(=O)Nc1nc2ccc(C(=O)c3cccs3)cc2[nH]1 [nocodazole], the “Zscan4 expression upon G2/M arrest” value (Zscan4) is listed as “not sufficient to trigger Zscan4 expression”.
